Laboratory results as given in US12109179B2, “Pharmaceutical compositions and combinations comprising inhibitors of the androgen receptor and uses thereof” (ESSA Pharma Inc., priority 2019, dated 2024).
Blank lines part the entries; values can stand above or below the molecule they belong to.

How the values were obtained:
[1] = system: Androgen-induced PSA-luciferase (LNCaP cells); assay: Androgen-induced PSA (6.1 kb)-luciferase reporter assay in LNCaP cells; type: cell-based; details: Homo sapiens, R1881 (1 nM) 24 h
Experimental: To determine the IC50, treatments were normalized to the maximum activity with androgen-induction (in the absence of test compounds, vehicle only) (Table 1).
Luciferase Assay: Lysates were thawed on ice then collected into V-bottom 96-well tissue culture plates. Lysates were centrifuged at 4° C. for 5 minutes at 4000 rpm. To measure luminescence of LNCaP cell lysates the Firefly Luciferase Assay System (Promega) was employed, according to manufacturer's protocol.
Comparisons between treatment and control groups were compared using Two-Way ANOVA with post-hoc Dunnett's and Tukey's tests. Differences were considered statistically significant at P values less than 0.05. Densitometric quantification of relative AR levels was determined by Image.

[2] = system: reporter constructs regulated by CMV promoter or AP-1 binding sites; assay: Control reporter constructs (CMV promoter, AP-1 binding sites); type: cell-based
From the text: 2010, and Myung et al., J Clin Invest. 2013.

[3] = system: PSA protein; assay: Western blot of PSA protein in LNCaP lysates; type: cell-based; details: ATRA (10 μM), R1881 (1 nM) 24 h
[4] = system: LN95-D3 cells; assay: Cell cycle analysis of LN95-D3 cells; type: cell-based; details: 1.5% charcoal-stripped serum
Experimental: Flow cytometry: Fixed cells were probed with anti-BrdU-FITC antibody (BD Biosciences) and stained with 7AAD (Sigma). Data was acquired on a FACSCalibur flow cytometer (BD Biosciences) with CellQUEST Pro and later analyzed using FlowJo V10 software.
After incubating with the compounds, cells were labelled with BrdU for 2 h and then processed for flow cytometry.

[5] = system: AR transcriptional activity (PSA (6.1 kb)-luciferase, LNCaP cells); assay: PSA (6.1 kb)-luciferase assay with Pin1 inhibitors and AR NTD inhibitors (Examples 36-37); type: cell-based; details: for IC50: Homo sapiens, 24 h
Experimental: Statistical analyses: Statistical significance was determined with GraphPad Prism 8 software using two-way ANOVA with Dunnett's multiple comparisons test unless indicated otherwise; *P<0.05, **P<0.01, ***P<0.001; ns, not significant.
Data shown in Figures are the means±SE from 4 independent experiments.

[6] = system: AR-positive breast cancer cell lines; assay: Cell proliferation (BrdU) and viability (alamarBlue) of breast cancer cell lines; type: cell-based; details: BrdU 4 days (enzalutamide 10 μM, EPI-002 35 μM); alamarBlue 2 or 3 days
Experimental: Cell Proliferation and Viability Assay: Each breast cancer cell line was plated at 5,000 cells per well in a 96-well plate in culture medium containing 5% or 10% fetal bovine serum. […] For proliferation assay, cells were treated for 4 days and labeled with BrdU for 2 hours. Incorporation of BrdU was measured by enzyme-linked immunosorbent assay (ELISA; Cell Proliferation ELISA, BrdU (colorimetric) from Roche). For cell viability assays, alamarBlue was used for assess cell viability after 2 or 3 days of treatment.
BrdU incorporation was used to assess cell proliferation.
AlamarBlue was used to assess cell viability. Results are presented as mean±SEM (n=3 except n=6 for LNCaP).

[7] = system: C4-2B-MDVR; assay: Colony formation, C4-2B-MDVR; type: cell-based, human
[8] = system: LN95 cells; assay: Senescence-associated β-gal staining of LN95 cells; type: cell-based; details: 1.5% charcoal-stripped serum, 3 days
Experimental: β-galactosidase staining: Cells grown in chamber slides and treated with compounds were fixed at room temperature with 2% formaldehyde/0.2% glutaraldehyde, and then incubated at 37° C. with fresh β-gal staining solution (Cell Signaling) titrated to pH 6.0. Staining was optimal after incubating the slides overnight for 16-18 hours.
Results shown are representative of 3 independent experiments.

[9] = system: LNCaP95 cells; assay: γH2AX DNA damage in LNCaP95 cells with or without irradiation; type: cell-based; details: ENZ 5 μM, with or without irradiation (4Gy), 48 h
Experimental: Further, cells were labelled for γH2AX and 7AAD and analyzed by flow cytometry (FIG. 12B). The percentage of cells containing above 10 γH2AX foci (mean±SD from three independent experiments) are represented in FIG. 12C.
Flow Cytometry: Cell cycle analysis was conducted by flow cytometry using BrdU-FITC and 7AAD. DNA damage was analyzed using γH2AX antibody (CST) and 7AAD. Cells were analyzed on FACScalibur flow cytometer.
Immunofluorescence staining: γH2AX antibody (Millipore mouse), Alexa488 anti-mouse antibody were used for staining. Cells were analyzed on Axio observer (×20 magnification) equipped with epitome 2.
Statistical analysis: Graphs represent the means±SEM from three independent experiments performed with three technical replicates. Statistical significance was determined using GraphPad Prism software with a one-way ANOVA; *P<0.05, **P<0.01, ***P<0.001, ****P<0.0001.

[10] = system: mCRPC patients with bone metastases; details: cited from earlier work

Compound: CC(C)(c1ccc(OCC(=O)CNS(C)(=O)=O)cc1)c1cc(Cl)c(OCCCCl)c(Cl)c1 [AA31, N-(3-(4-(2-(3,5-dichloro-4-(3-chloropropoxy)phenyl)propan-2-yl)phenoxy)-2-oxopropyl)methanesulfonamide]
IC50 [1]: 51 nM

Compound: CC(C)(c1ccc(OCC(=O)CNS(C)(=O)=O)cc1)c1cc(Cl)c(OCCCl)c(Cl)c1 [AA33]
IC50 [1]: 38 nM

Compound: CC(O)(CCl)COc1c(Cl)cc(C(C)(C)c2ccc(OCC(=O)CNS(C)(=O)=O)cc2)cc1Cl (stereo not drawn) [AA52]
IC50 [1]: 74 nM

Compound: COCC(=O)COc1ccc(C(C)(C)c2cc(Cl)c(OCC(O)CCl)c(Cl)c2)cc1 (stereo not drawn) [AA56]
IC50 [1]: 344 nM

Compound: CC1=C(/C=C/C(C)=C/C=C/C(C)=C/C(=O)O)C(C)(C)CCC1 [ATRA, all-trans retinoic acid]
inhibitory effects on CMV promoter or AP-1 reporter constructs [2]: No inhibitory effects | androgen-induced expression of PSA protein [3]: decreased | cell cycle effect [4]: arrested cells in G1 and decreased the S phase population in a dose-dependent manner

Compound: CC1=C(/C=C/C(C)=C/C=C/C(C)=C\C(=O)O)C(C)(C)CCC1 [Compound 13CisRA]
inhibitory effects on CMV promoter or AP-1 reporter constructs [2]: No inhibitory effects

Compound: CNC(=O)c1ccc(N2C(=S)N(c3ccc(C#N)c(C(F)(F)F)c3)C(=O)C2(C)C)cc1F [Enzalutamide, enzalutamide]
percentage of cells containing above 10 γH2AX foci [9]: no effect | combination with ATRA: G1 arrest and decrease of S phase population [4]: not

Compound: [Cl][223Ra][Cl] [radium 223 dichloride]
increase overall survival (OS) [10]: approximately 3 months

Now from value to molecule, other results behind:

IC50 [1]: 368 nM
Compound: CC(=O)C(=O)Nc1ccc(C(C)(C)c2cc(Cl)c(OCCCCl)c(Cl)c2)cc1 [AA85]

IC50 [1]: 1410 nM
Compound: CC(C)(c1ccc(OC[C@H](O)CO)cc1)c1cc(Cl)c(OC[C@H](O)CCl)c(Cl)c1 [Compound 1a]

IC50 [1]: 1030 nM
Compound: COC[C@@H](O)COc1ccc(C(C)(C)c2cc(Cl)c(OC[C@H](O)CCl)c(Cl)c2)cc1 [Compound 5a]

IC50 [1]: 3120 nM
Compound: CC(C)(c1ccc(OC[C@H](O)Cn2ccnc2)cc1)c1cc(Cl)c(OC[C@H](O)CCl)c(Cl)c1 [Compound 9a]

IC50 [1]: 1050 nM
Compound: CC(C)(c1ccc(OC[C@H](O)CN2CCOCC2)cc1)c1cc(Cl)c(OC[C@H](O)CCl)c(Cl)c1 [Compound 11a]

IC50 [1]: 2260 nM
Compound: CC(C)(c1ccc(OC[C@H](O)CN)cc1)c1cc(Cl)c(OC[C@H](O)CCl)c(Cl)c1 [Compound 12a, (R)-1-amino-3-(4-(2-(3,5-dichloro-4-((S)-3-chloro-2-hydroxypropoxy)phenyl)propan-2-yl)phenoxy)propan-2-ol]

IC50 [1]: 1050 nM | IC50 [5]: 740 ± 1200 nM
Compound: CC(C)(c1ccc(OC[C@H](O)CNS(C)(=O)=O)cc1)c1cc(Cl)c(OC[C@H](O)CCl)c(Cl)c1 [Compound 13a]

IC50 [1]: 950 nM
Compound: CCS(=O)(=O)C[C@@H](O)COc1ccc(C(C)(C)c2cc(Cl)c(OC[C@H](O)CCl)c(Cl)c2)cc1 [Compound 14a]

IC50 [5]: 7900 ± 1200 nM | decrease in IC50 values in the presence of ATRA ([5]; PSA (6.1 kb)-luciferase): 2 fold
Compound: CC(C)(c1ccc(OC[C@H](O)CO)cc1)c1ccc(OC[C@H](O)CCl)cc1 [EPI-002]
effect of combination with ATRA on inhibiting AR transcriptional activity ([5]; PSA (6.1 kb)-luciferase, R1881 (1 nM)): synergistic effect | cell proliferation and viability [6]: significantly inhibited | colony formation, combination with Enzalutamide [7]: reduced colony formation | combination with ATRA: G1 arrest and decrease of S phase population [4]: synergistic | percentage of β-gal-positive cells, combination with ATRA [8]: synergy
